The record followed here is US9428491B2, “Substituted azoles, antiviral active component, pharmaceutical composition, method for preparation and use thereof” (priority 2010, dated 2016).

What is called IC50 is the concentration that gives 50% inhibition. Read a low IC50 as greater potency in that assay. The CC50 is the concentration that lowers cell viability or growth by half.

Data set [1] deals with subgenomic RNA-replicon HCV (genotype 1b (gT1b), don Con1). Briefly: Antiviral activity in Huh7 HCV subgenomic replicon cells, immunoenzymatic assay (IEA). The class given is cell-based, hepatitis C virus. As to conditions: Huh7 cells with HCV gT1b replicon, 3 days incubation. As for the experimental part:
Antiviral activity of substituted azoles of the general formula 1 was determined in the human hepatoma cell line Huh7, comprising subgenomic RNA-replicon HCV (genotype 1b (gT1b), don Con1). A version of immumoenzymatic assay (IEA) on viral protein NS5A in 96-well plate was used as an experimental method. Cytotoxicity of the compounds was estimated in parallel regime. Cells Huh7 were seeded in 96-well plate (7.5×10^3 cells to each well in 100 μl of culture medium). Solutions of the tested compounds in DMEM medium {DMEM) 1×; Source: Cellgro; Catalogue: 10-013-CV} were prepared immediately before use. Eleven serial three fold dilutions with variation of concentrations from 20 nM to 0.2 pM were prepared. In 4 hours after seeding, serial dilutions of the compounds were added to the cells (100 μl to each well). Final concentration of tested compounds was varied from 10 nM to 0.1 pM, and DMSO—0.5%. If it was necessary, higher concentrations of the disclosed azoles were investigated. Each dilution of the compound was tested on two identical wells. Then the cells were incubated for three days at 37° C./5% CO2 and fixed by addition of acetone/methanol (1:1) mixture in amount of 250 μl/well. In 1 min the cells were washed 3 times with PBS (Phosphate Buffered Saline) solution. Then the cells were blocked by addition of 10% fetal calf serum in PBS solution in amount of 150 μl/well for 1 h at room temperature. Then, the cells were incubated with mouse monoclonal antibodies to cor-antigen HCV, don C7-50 (Source: Affinity BioReagents; Catalogue: MA1-080) (100 μl/well, working dilution—1:500 in 10% fetal calf serum in PBS solution) for 2 h at 37° C. The cells were washed 6 times with PBS/0.05% Tween 20 solution, then, they were incubated for 1 h with goat anti-mouse immunoglobulin antibodies (conjugated with horseradish peroxidase, 100 μl/well, working dilution—1:2500 in 10% fetal calf serum in PBS solution). The cells were washed 6 times with PBS/0.05% Tween 20 solution, once with PBS solution, after that substrate (1 tablet of o-phenylenediamine (oPD)+12 ml citrate/phosphate buffer+5 μl 30% H2O2) in amount of 100 μl/well was added. The plates were kept for 30 min in the dark at room temperature. The reaction was arrested by the addition of 2N H2SO4 in amount of 100 μl/well, and optical density (wavelength 490 nm) was measured by means of multiscan plate reader Victor3 V 1420 (Perkin Elmer). IC50 values (azole concentration, lowering the level of virus RNA-replicon on 50%) for every tested azole were calculated with the help of XLfit 4 program.

The nature of data set [2]: Cytotoxicity in Huh7 cells (ATPLite). In kind it is cell-based, human. The settings on record: human, Huh7 cells (human hepatoma cell line), 96 h incubation, read-out: CC50, nM (gT1b). As for the experimental part:
(§1) Cytotoxicity of the disclosed azoles was tested in experiments in the human hepatoma cell line Huh7. The amount of living cells was determined with the help of ATPLite kit (Perkin Elmer, Boston, USA) in accordance with manufacturer instructions. Cytotoxic action was estimated by seeding the cells into black microplate with transparent bottom (96 wells, 10^4 cells to each well). Three independent repeatings were used for each bis-azole. The tested bis-azoles were added in 18 h, after that the cells were incubated together with the compounds for 96 h. Each well was washed two times with phosphate buffered saline (0.2 ml/well) and then the cells were lysed by addition of cell buffer (50 μl/well) (all mentioned reagents are included in ATPLite kit). The microplate was incubated for 5 min on a rotating platform at 600 r/min, after that 50 μl of substrate solution (a part of ATPLite kit) was added into each well. The microplate was incubated for additional 5 min on a rotating platform at 600 r/min, kept for 10 min in the dark, after that luminescence was measured using TopCount NXT instrument (Packard, Perkin Elmer).
(§2) CC50 Value corresponding to bis-azole concentration at which 50% of cells were ruined was used as quantitative characteristic for cytotoxicity estimation. Calculation of CC50 value: for calculation of inhibition effectiveness (% Inh) the following equation was used: % Inh=[(L^pos−L^ex)/L^pos−L^neg)]*100%, where L^pos—positive control, luminescence in the wells with cells without compounds; L^neg—negative control, luminescence in the wells with medium without cells; L^ex—luminescence in wells with a compound of definite concentration. Then, CC50 values were calculated with the help of XLfit 4 program. Test results for novel azoles of the general formula 1 testify their high (nanomolar) or very high (picomolar) activity.
(In general: ATP-based viability assays read luminescence as a measure of living cells.)

Data set [3] has as its system human hepatoma cell line Huh7. Put plainly: Cytotoxicity in Huh7 cells (ATPLite). The settings on record: 96 h incubation, read-out: CC50, nM (gT1b). The class given is cell-based. The protocol: as §1, §2

Counter-ions that a name gives are not always drawn. Like-named read-outs stand apart in the source and are kept apart here. A value given as a limit tells only on which side of the number the result lay.

`COC(=O)N[C@H](C(=O)N1CCC[C@H]1c1nc(C#CC#Cc2ccc(-c3c[nH]c([C@@H]4CCCN4C(=O)[C@@H](NC(=O)OC)C(C)C)n3)s2)c[nH]1)C(C)C` [1.9•2HCl, [(S)-1-((S)-2-{4-[4-(5-{2-[(S)-1-((S)-2-Methoxycarbonylamino-3-methyl-butyryl)-pyrrolidin-2-yl]-1H-imidazol-4-yl}-thiophen-2-yl)-buta-1,3-diynyl]-1H-imidazol-2-yl}-pyrrolidine-1-carbonyl)-2-methyl-propyl]-carbamic acid methyl ester dihydrochloride] registered an IC50 in data set [1] (Hepatitis C virus, Huh-7, 72 h) of 0.0032 nM. The 50% cytotoxic concentration (CC50) at 96 h in data set [2] was over 10000 nM.
As for `COC(=O)N[C@H](C(=O)N1CCC[C@H]1c1ncc(C#CC#Cc2ccc(-c3cnc([C@@H]4CCCN4C(=O)[C@@H](NC(=O)OC)C(C)C)[nH]3)c3ccccc23)[nH]1)C(C)C` [1.8•2HCl, Methyl [(S)-1-((S)-2-{5-[4-(4-{2-[(S)-1-((S)-2-methoxycarbonylamino-3-methyl-butyryl)-pyrrolidin-2-yl]-3H-imidazol-4-yl}-buta-1,3-diynyl)-naphthalen-1-yl]-1H-imidazol-2-yl}-pyrrolidine-1-carbonyl)-2-methyl-propyl]-carbamate dihydrochloride], in data set [1] (Hepatitis C virus, Huh-7, 72 h), the concentration for half-maximal inhibition (IC50) is 0.0048 nM. Moreover, the 50% cytotoxic concentration (CC50) at 96 h in data set [2] is over 10000 nM.
In data set [1] (Hepatitis C virus, Huh-7, 72 h), `COC(=O)N[C@H](C(=O)N1CCC[C@H]1c1ncc(C#CC#Cc2cccc3c(-c4cnc([C@@H]5CCCN5C(=O)[C@@H](NC(=O)OC)C(C)C)[nH]4)cccc23)[nH]1)C(C)C` [1.7•2HCl, Methyl [(S)-1-((S)-2-{5-[5-(4-{2-[(S)-1-((S)-2-methoxycarbonylamino-3-methyl-butyryl)-pyrrolidin-2-yl]-3H-imidazol-4-yl}-buta-1,3-diynyl)-naphthalen-1-yl]-1H-imidazol-2-yl}-pyrrolidine-1-carbonyl)-2-methyl-propyl]-carbamate dihydrochloride] registered an IC50 of 0.0036 nM. The half-maximal cytotoxic concentration (CC50) at 96 h in data set [2] is over 10000 nM.
In data set [1], “Methyl (R)-[(S)-2-(5-{4-[4-(2-{(S)-1-[(S)-2-(methoxycarbonylamino)-3-methylbutanoyl]pyrrolidin-2-yl}-3H-imidazol-4-yl)buta-1,3-diynyl]phenyl}-1H-imidazol-2-yl)pyrrolidin-1-yl]-2-oxo-1-phenylethylcarbamate dihydrochloride [1.4•2HCl]” showed a half-inhibitory concentration (IC50) of 0.0018 nM. The 50% cytotoxic concentration (CC50) in data set [3] was over 10000 nM.
In data set [1] (Hepatitis C virus, Huh-7, 72 h), `COC(=O)N[C@H](C(=O)N1CCC[C@H]1c1ncc(C#CC#Cc2csc3c(-c4cnc([C@@H]5CCCN5C(=O)[C@@H](NC(=O)OC)C(C)C)[nH]4)csc23)[nH]1)C(C)C` [1.10•2HCl, Methyl [(S)-1-((S)-2-{5-[6-(4-{2-[(S)-1-((S)-2-Methoxycarbonylamino-3-methyl-butyryl)-pyrrolidin-2-yl]-3H-imidazol-4-yl}-buta-1,3-diynyl)-thieno[3,2-b]thiophen-3-yl]-1H-imidazol-2-yl}-pyrrolidine-1-carbonyl)-2-methyl-propyl]-carbamate dihydrochloride] came in with an IC50 of 0.002 nM. For the same molecule, the half-maximal cytotoxic concentration (CC50) at 96 h in data set [2] is over 10000 nM.
For the molecule `COC(=O)N[C@H](C(=O)N1CCC[C@H]1c1ncc(C#CC#Cc2ccc(-c3cnc([C@@H]4CCCN4C(=O)[C@@H](NC(=O)OC)C(C)C)[nH]3)cc2)[nH]1)C(C)C` [Compound 1.1, [(1S)-1-[[(2S)-2-[5-[4-[4-[2-[(2S)-1-[(2S)-2-[(methoxycarbonyl)amino]-3-methyl-1-oxobutyl]-2-pyrrolidinyl]-1H-imidazol-5-yl]-1,3-butadiynyl]phenyl]-1H-imidazol-2-yl]-1-pyrrolidinyl]carbonyl]-2-methylpropyl]-carbamic acid methyl ester], the 50% inhibitory concentration (IC50) in data set [1] (Hepatitis C virus, Huh-7, 72 h) was 0.0031 nM. In data set [3], the half-maximal cytotoxic concentration (CC50) is over 10000 nM.
For “Methyl (S)-[(S)-2-(5-{4-[4-(2-{(S)-1-[(S)-2-(methoxycarbonylamino)-3-methylbutanoyl]pyrrolidin-2-yl}-3H-imidazol-4-yl)buta-1,3-diynyl]phenyl}-1H-imidazol-2-yl)pyrrolidin-1-yl]-2-oxo-1-phenylethylcarbamate dihydrochloride [1.5•2HCl]”, the IC50 in data set [1] was 0.0082 nM. In addition, the 50% cytotoxic concentration (CC50) in data set [3] was over 10000 nM.
The molecule `COC(=O)N[C@H](C(=O)N1CCC[C@H]1c1ncc(-c2ccc(C#CC#Cc3cnc([C@@H]4CCCN4C(=O)[C@@H](NC(=O)OC)C(C)C)[nH]3)cc2)[nH]1)c1ccccc1` [1.3•2HCl, Methyl (5)-[(S)-2-(5-{4-[4-(2-{(S)-1-[(S)-2-(methoxycarbonylamino)-3-methylbutanoyl]pyrrolidin-2-yl}-3H-imidazol-4-yl)buta-1,3-diynyl]phenyl}-1H-imidazol-2-yl)pyrrolidin-1-yl]-2-oxo-1-phenylethylcarbamate dihydrochloride] returned an IC50 in data set [1] of 0.0054 nM. The 50% cytotoxic concentration (CC50) in data set [3] is over 10000 nM.
In turn, `COC(=O)N[C@H](C(=O)N1CCC[C@H]1c1ncc(C#CC#Cc2ccc3cc(-c4cnc([C@@H]5CCCN5C(=O)[C@@H](NC(=O)OC)C(C)C)[nH]4)ccc3c2)[nH]1)C(C)C` [1.6•2HCl, Methyl [(S)-1-((S)-2-{5-[2-(4-{2-[(S)-1-((S)-2-methoxycarbonylamino-3-methyl-butyryl)-pyrrolidin-2-yl]-3H-imidazol-4-yl}-buta-1,3-diynyl)-naphthalen-6-yl]-1H-imidazol-2-yl}-pyrrolidine-1-carbonyl)-2-methyl-propyl]-carbamate dihydrochloride] had a half-maximal inhibitory concentration (IC50) in data set [1] (Hepatitis C virus, Huh-7, 72 h) of 0.0046 nM. In data set [2], the 50% cytotoxic concentration (CC50) at 96 h was over 10000 nM.
For the molecule `COC(=O)N[C@H](C(=O)N1CCC[C@H]1c1ncc(C#CC#Cc2ccc(-c3cnc([C@@H]4CCCN4C(=O)[C@@H](NC(=O)OC)C(C)C)[nH]3)cc2)[nH]1)C(C)C` [1.1•2HCl, [(1S)-1-[[(2S)-2-[5-[4-[4-[2-[(2S)-1-[(2S)-2-[(Methoxycarbonyl)amino]-3-methyl-1-oxobutyl]-2-pyrrolidinyl]-1H-imidazol-5-yl]-1,3-butadiynyl]phenyl]-1H-imidazol-2-yl]-1-pyrrolidinyl]carbonyl]-2-methylpropyl]-carbamic acid methyl ester dihydrochloride], the IC50 in data set [1] (dihydrochloride) was 0.0034 nM. Besides, the half-maximal cytotoxic concentration (CC50) in data set [3] (dihydrochloride) was 85100 nM.
